Reference: US20230372365A1, “METHODS OF TREATING FIBROMYALGIA WITH NEUROACTIVE STEROIDS” (priority 2020, published 2023)

How the values were obtained:
GABAA receptor subtypes = assay: FLIPR calcium flux, all 18 subtypes taken together; assay type: cell-based; settings: 18 subtypes tested
Description: (§1) Cells expressing the indicated GABAA receptor subtype were exposed to gamma-aminobutyric acid in the presence of varying concentrations of either CV-10155 or SPNC-019, calcium flux was measured using a fluorometric imaging plate reader (FLIPR), and EC50 values for compounds were determined.
The results further indicate that the isomeric purity of compositions containing compounds of Formula (I) greatly impacts the utility of such compositions as therapeutic agents.

α4β3δ GABAA receptor [1] = biological target: T1, α4β3δ GABAA receptor (Homo sapiens, UniProt O14764+P28472+P48169); assay: FLIPR calcium flux, modulation of GABA response; assay type: cell-based; parameters: expressed in transfected cells; settings: comparison of Example 1 data
Description: as §1

[2] = biological target: picrotoxin binding site of GABAA receptors; settings: membranes from cortices of rat brains; read-out: IC50 in the TBPS displacement assay; cited from earlier work
α1β2γ2 GABAA receptors = biological target: T2, α1β2γ2 GABAA receptors (Homo sapiens, UniProt P14867+P18507+P47870); settings: 10 μM steroid, GABA 2 μM (EC20), LTK cells; cited from earlier work
T2 construct: expressed in transfected cells; host or cells: LTK cells, stably transfected

α4β3δ GABAA receptor [3] = biological target: T1, α4β3δ GABAA receptor; parameters: expressed in transfected cells; host or cells: CHO cells, transiently transfected; settings: 10 μM steroid, GABA 2 μM (EC20), CHO cells; cited from earlier work

T1 sequence (P48169 36-554): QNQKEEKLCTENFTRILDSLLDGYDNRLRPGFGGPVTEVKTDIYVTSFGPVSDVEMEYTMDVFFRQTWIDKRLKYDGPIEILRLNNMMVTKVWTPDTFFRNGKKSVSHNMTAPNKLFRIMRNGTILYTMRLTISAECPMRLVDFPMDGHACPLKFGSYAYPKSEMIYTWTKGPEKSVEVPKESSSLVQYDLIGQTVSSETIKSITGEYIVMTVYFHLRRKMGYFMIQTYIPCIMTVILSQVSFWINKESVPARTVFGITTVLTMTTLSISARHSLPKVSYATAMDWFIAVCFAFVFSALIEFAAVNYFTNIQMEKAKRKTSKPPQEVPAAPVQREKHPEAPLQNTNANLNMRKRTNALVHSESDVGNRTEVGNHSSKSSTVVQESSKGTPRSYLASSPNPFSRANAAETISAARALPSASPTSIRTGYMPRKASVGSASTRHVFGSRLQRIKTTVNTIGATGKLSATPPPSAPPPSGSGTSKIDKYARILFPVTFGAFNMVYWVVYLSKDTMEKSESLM
T1 sequence (P28472 26-473): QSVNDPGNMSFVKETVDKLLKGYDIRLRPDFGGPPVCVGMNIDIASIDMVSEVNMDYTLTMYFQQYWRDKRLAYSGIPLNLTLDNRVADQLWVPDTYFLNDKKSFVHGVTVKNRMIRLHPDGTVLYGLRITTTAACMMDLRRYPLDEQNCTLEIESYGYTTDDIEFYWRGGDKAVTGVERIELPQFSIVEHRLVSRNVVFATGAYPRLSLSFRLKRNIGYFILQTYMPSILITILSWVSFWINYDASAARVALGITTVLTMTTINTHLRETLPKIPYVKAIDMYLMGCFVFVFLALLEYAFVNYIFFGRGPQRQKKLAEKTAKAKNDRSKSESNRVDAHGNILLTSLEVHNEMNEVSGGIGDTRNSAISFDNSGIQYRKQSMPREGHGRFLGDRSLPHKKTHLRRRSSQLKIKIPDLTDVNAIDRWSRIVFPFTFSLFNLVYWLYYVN
T1 sequence (O14764 25-452): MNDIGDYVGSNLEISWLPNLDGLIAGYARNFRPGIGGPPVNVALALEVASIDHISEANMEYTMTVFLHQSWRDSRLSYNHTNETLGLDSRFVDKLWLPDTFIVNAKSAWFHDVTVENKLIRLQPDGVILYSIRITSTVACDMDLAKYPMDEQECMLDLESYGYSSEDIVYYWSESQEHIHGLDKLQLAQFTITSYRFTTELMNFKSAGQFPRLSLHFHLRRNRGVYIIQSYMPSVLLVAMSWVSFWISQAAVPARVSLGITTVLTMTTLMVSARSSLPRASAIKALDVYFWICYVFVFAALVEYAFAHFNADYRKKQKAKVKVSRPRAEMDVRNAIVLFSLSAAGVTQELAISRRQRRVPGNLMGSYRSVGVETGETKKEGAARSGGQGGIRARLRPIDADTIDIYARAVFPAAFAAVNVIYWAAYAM
T2 sequence (P14867 28-456): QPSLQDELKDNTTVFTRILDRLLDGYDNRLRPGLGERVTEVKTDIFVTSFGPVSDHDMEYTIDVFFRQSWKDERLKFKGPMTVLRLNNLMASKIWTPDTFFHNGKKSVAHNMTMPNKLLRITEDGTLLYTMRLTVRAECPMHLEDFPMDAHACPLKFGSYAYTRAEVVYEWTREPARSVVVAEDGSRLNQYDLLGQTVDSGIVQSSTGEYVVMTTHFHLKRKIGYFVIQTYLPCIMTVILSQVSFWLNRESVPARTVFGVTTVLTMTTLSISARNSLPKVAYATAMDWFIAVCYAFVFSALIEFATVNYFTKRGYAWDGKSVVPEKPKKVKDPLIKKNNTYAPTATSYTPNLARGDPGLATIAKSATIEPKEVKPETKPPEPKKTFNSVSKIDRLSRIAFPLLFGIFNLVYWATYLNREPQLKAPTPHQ
T2 sequence (P47870 25-512 limits assumed): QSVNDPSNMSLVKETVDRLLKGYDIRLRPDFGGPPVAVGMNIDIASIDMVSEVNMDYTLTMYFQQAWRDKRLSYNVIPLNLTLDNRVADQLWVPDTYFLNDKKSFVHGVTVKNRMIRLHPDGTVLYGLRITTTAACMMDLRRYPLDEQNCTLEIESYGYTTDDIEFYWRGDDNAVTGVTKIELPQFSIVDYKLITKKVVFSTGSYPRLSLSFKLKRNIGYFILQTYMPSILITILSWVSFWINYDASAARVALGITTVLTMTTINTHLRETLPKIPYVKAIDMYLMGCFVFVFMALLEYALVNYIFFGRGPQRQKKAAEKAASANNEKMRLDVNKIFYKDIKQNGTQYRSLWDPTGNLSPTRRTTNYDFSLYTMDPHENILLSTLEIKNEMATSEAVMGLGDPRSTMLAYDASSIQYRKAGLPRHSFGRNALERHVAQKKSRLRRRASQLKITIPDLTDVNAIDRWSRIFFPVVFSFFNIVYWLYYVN
T2 sequence (P18507 40-475): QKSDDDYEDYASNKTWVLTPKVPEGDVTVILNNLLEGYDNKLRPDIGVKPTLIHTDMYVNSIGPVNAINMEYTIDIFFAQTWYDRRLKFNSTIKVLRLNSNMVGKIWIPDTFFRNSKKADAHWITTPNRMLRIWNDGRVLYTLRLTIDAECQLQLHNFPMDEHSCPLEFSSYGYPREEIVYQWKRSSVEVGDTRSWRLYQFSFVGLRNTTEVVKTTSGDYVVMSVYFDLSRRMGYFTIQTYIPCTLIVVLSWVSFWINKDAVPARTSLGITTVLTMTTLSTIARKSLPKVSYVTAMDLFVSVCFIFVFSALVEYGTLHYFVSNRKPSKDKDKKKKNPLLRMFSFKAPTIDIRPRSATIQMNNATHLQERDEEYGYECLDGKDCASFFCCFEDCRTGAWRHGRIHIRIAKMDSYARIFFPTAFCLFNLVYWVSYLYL

SMILES	modulating activity across the GABAA receptor subtypes tested (GABAA receptor subtypes)	IC50 [2] [nM]	other results
C[C@@]1(O)CC[C@@]2(C)[C@@H](CC[C@@H]3[C@@H]2CC[C@]2(C)[C@@H](C(=O)Cn4cc(C#N)cn4)CC[C@@H]32)C1 [CV-10155, 1-[2-[(3R,5S,8R,9S,10S,13S,14S,17S)-3-hydroxy-3,10,13-trimethyl-1,2,4,5,6,7,8,9,11,12,14,15,16,17-tetradecahydrocyclopenta[a]phenanthren-17-yl]-2-oxoethyl]pyrazole-4-carbonitrile]	some level of positive allosteric modulating activity in all of the GABAA receptor subtypes tested	–	preferential modulation of α4β3δ compared to α1β2γ2 GABAA receptors (α4β3δ GABAA receptor [1]): preferentially modulate; preferential modulation of α4β3δ compared to α1β2γ2 GABAA receptors (α4β3δ GABAA receptor [1]; listed as Formula (I)): substantially more active
C[C@]1(O)CC[C@@]2(C)[C@@H](CC[C@@H]3[C@@H]2CC[C@]2(C)[C@@H](C(=O)Cn4cc(C#N)cn4)CC[C@@H]32)C1 [SPNC-019]	no modulating activity in 15 of the 18 GABAA receptor subtypes tested	–	–
C[C@@]1(O)CC[C@@]2(C)[C@@H](CC[C@@H]3[C@@H]2CC[C@]2(C)[C@@H](C(=O)Cn4ccc(C#N)n4)CC[C@@H]32)C1 [Compound 121]	–	10 to 50	efficacy (relative potentiation of GABA-mediated conductance) (α1β2γ2 GABAA receptors): > 500%; efficacy (relative potentiation of GABA-mediated conductance) (α4β3δ GABAA receptor [3]): > 500%
C[C@@]1(O)CC[C@@]2(C)[C@H](CC[C@@H]3[C@@H]2CC[C@]2(C)[C@@H](C(=O)Cn4cc(C#N)cn4)CC[C@@H]32)C1 [Compound 10]	–	< 10	–
